Assays:
[1] = test system: AvrBs2 (AvrBs2-FLAG)
[2] = test system: T1, XanP (His-XanP)
T1 construct: gene XOC_0142
T1 sequence (G7TIV3 32-261 limits assumed): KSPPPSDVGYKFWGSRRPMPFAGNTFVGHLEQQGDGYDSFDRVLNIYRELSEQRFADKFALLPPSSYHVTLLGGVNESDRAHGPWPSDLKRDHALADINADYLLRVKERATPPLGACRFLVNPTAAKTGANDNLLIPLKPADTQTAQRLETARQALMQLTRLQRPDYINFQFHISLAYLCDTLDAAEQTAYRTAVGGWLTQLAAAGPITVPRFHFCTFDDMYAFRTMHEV

Sequence of AvrBs2 (AvrBs2-FLAG) (G7TIV7 1-714): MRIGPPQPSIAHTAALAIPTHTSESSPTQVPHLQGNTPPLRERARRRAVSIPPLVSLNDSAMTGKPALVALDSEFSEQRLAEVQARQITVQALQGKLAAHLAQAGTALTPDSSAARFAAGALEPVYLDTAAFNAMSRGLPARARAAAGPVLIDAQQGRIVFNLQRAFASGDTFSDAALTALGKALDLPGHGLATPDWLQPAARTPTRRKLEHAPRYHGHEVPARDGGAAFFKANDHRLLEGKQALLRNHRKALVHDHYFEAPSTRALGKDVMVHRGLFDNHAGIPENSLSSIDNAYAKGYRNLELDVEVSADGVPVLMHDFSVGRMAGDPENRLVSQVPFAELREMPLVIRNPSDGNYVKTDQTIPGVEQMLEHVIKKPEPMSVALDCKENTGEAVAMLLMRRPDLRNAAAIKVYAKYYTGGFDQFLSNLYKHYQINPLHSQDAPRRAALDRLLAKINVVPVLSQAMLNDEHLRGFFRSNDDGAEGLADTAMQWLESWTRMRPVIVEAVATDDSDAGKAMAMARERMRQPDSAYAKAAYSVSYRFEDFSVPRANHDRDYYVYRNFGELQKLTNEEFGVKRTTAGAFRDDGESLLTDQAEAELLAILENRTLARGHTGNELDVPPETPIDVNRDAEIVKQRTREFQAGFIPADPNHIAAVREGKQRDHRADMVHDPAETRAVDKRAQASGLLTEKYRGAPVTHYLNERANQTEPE

| SMILES | TLC and HILIC-ESI-MS of in vitro xanthosan synthesis [1] | TLC of hydrolysis products [2] |
| --- | --- | --- |
| O=P1(O)OC[C@H]2O[C@H](OP(=O)(O)OC[C@H]3O[C@H](O1)[C@H](O)[C@@H](O)[C@H]3O)[C@H](O)[C@@H](O)[C@H]2O [xanthosan, bis-(1,6)-cyclic dimeric α-D-galactose-phosphate] | AvrBs2 converts UDP-α-D-galactose into xanthosan | – |
| O=P(O)(O)O[C@H]1O[C@H](CO)[C@H](O)[C@H](O)[C@H]1O [Gal-1-P] | – | the other product migrated similarly to Gal-1-P, but not Gal-6-P |
